Measured values: PubChem BioAssay (NCI)
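Compound exposure: 48 hours, 5 concentrations, 96-well plates. At the TGI there is no net growth.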

Experiments:
Assay in all cases: NCI anticancer screen, dose series, 48 h
HL-60(TB) leukemia = system: HL-60(TB) leukemia
SF-539 CNS = system: SF-539 CNS
NCI-H522 lung = system: NCI-H522 lung
NCI-H226 lung = system: NCI-H226 lung
RPMI-8226 leukemia = system: RPMI-8226 leukemia
TK-10 renal = system: TK-10 renal
DU-145 prostate = system: DU-145 prostate
MDA-MB-435 = system: MDA-MB-435
EKVX NSCLC = system: EKVX NSCLC
OVCAR-8 ovarian = system: OVCAR-8 ovarian
SNB-75 CNS = system: SNB-75 CNS
SW-620 colon = system: SW-620 colon
T-47D breast = system: T-47D breast
SF-268 CNS = system: SF-268 CNS
NCI/ADR-RES ovarian = system: NCI/ADR-RES ovarian
PC-3 prostate = system: PC-3 prostate
A498 renal = system: A498 renal
SK-MEL-2 melanoma = system: SK-MEL-2 melanoma

SMILES | TGI (HL-60(TB) leukemia) [µM] | TGI (SF-539 CNS) [µM] | TGI (NCI-H522 lung) [µM] | TGI (NCI-H226 lung) [µM] | TGI (RPMI-8226 leukemia) [µM] | TGI (TK-10 renal) [µM] | TGI (DU-145 prostate) [µM] | TGI (MDA-MB-435) [µM] | TGI (EKVX NSCLC) [µM] | TGI (OVCAR-8 ovarian) [µM] | TGI (SNB-75 CNS) [µM] | TGI (SW-620 colon) [µM] | TGI (T-47D breast) [µM] | TGI (SF-268 CNS) [µM] | TGI (NCI/ADR-RES ovarian) [µM] | TGI (PC-3 prostate) [µM] | TGI (A498 renal) [µM] | TGI (SK-MEL-2 melanoma) [µM]
CN(C)C1(C(=O)O)CC1 | > 100 | > 100 | > 100 | > 100 | > 100 | > 100 | > 100 | > 100 | > 100 | > 100 | > 100 | > 100 | > 100 | > 100 | > 100 | > 100 | > 100 | 
CSC(=NC1CC(n2cc(C)c(=O)[nH]c2=O)OC1CO)NC#N (stereo not given) | > 100 | > 100 | > 100 | > 100 |  | > 100 | > 100 | > 100 | > 100 | > 100 | > 100 | > 100 | > 100 | > 100 | > 100 | > 100 | > 100 | > 100
OC(c1ccc(F)cc1)C(F)(F)c1nc(-c2ccccc2)no1 (stereo not given) | 48.7 |  | > 100 |  |  | > 100 | 50.4 | 35.6 | 63.7 | > 100 |  | 58.9 | 68.3 | 62.9 | > 100 | 63.4 | 39.2 | 39.1
Cc1[nH]c2ncn3ncnc3c2c1Cc1ccccc1 | > 100 | > 100 | > 100 | > 100 |  | > 100 | > 100 | > 100 | > 100 | > 100 | > 100 | > 100 | > 100 | > 100 | > 100 | > 100 | > 100 | > 100
COc1ccc(C2=NN(C(=O)c3ccccc3)C(O)(c3cc(F)c(Cl)cc3Cl)C2)cc1OC (stereo not given) | > 100 | > 100 | > 100 | > 100 | > 100 | 98.1 | > 100 | > 100 | > 100 | > 100 |  | > 100 | > 100 | > 100 | > 100 | > 100 | > 100 | 91.7
COc1cc(CNc2nc3ccccc3nc2-c2cccs2)cc(OC)c1OC | > 100 | > 100 | 38.7 | 97.7 | 53.4 | > 100 | > 100 | > 100 | > 100 | > 100 | > 100 | > 100 | > 100 | > 100 | 51.2 | 39.4 | > 100 | 
C=C[C@@]1(C)CC2CC[C@]3(C)C(C)=CC(=O)CC3[C@]2(C)CC1O (stereo not given in full) | 82 | > 100 | 74.4 | > 100 | > 100 | > 100 | > 100 | > 100 | > 100 |  |  | > 100 | > 100 | > 100 | > 100 | > 100 | > 100 | > 100
